Like-named read-outs stand apart in the source and are kept apart here.
What was measured:
Type in all cases: cell-based
human GLP-2R = target: T1, human GLP-2R (Homo sapiens, UniProt O95838); assay: HitHunter cAMP assay in transiently transfected COS-7 cells, human GLP-2R;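 also: cells kept 30 min at 37 °C in buffer with 1 mM IBMX, then given ligand for another 30 min at 37 °C before cAMP readout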
T1 construct: host or cells: COS-7
T1 sequence (O95838 1-553): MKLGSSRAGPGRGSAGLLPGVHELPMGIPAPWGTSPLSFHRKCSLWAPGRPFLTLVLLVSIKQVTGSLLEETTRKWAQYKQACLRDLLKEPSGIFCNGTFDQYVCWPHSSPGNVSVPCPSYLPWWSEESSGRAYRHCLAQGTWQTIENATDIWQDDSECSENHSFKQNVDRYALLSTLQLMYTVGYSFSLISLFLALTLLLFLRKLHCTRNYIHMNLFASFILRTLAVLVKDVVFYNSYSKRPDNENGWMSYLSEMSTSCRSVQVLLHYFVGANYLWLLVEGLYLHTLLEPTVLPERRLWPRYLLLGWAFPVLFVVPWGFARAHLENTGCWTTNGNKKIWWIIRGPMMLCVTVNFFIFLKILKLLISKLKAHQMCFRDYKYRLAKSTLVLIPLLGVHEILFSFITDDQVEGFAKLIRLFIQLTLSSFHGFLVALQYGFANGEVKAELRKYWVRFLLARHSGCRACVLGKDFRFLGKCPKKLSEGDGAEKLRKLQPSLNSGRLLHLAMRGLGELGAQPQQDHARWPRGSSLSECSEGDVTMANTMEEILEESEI
Method: COS-7 cells were cultured at 10% CO2 and 37° C. in Dulbecco's Modified Eagle Medium (DMEM) 1885 supplemented with 10% fetal bovine serum (FBS), 2 mM glutamine, 180 units/ml penicillin, and 45 g/ml streptomycin.
The next day the assay was initiated by washing with HEPES buffered saline (HBS) and followed by an incubation step with assay buffer (HBS added 1 mM isobutyl-1-methylxanthine (IBMX)) for 30 min at 37° C. The ligands were then added and incubated for an additional 30 min at 37° C. After ligand incubation, the HitHunter® CAMP assay (Eurofins DiscoverX, Fremont, 150 USA) was carried out according to the manufacturer's instructions. Luminescence was measured by PerkinElmer™ EnVision 2014 Multilabel Reader (PerkinElmer, Waltham, MA). The potencies (EC50 values) were determined by nonlinear regression using GraphPad Prism 9 (San Diego, California, USA). Sigmoid curves were fitted logistically. The efficacies (Emax values) were determined by normalization to the highest concentration applied of the endogenous ligand for each receptor.

human GLP-1R = target: T2, human GLP-1R (Homo sapiens, UniProt P43220); assay: HitHunter cAMP assay in transiently transfected COS-7 cells, human GLP-1R; conditions: for activation of hGLP-1R: fatty acid at C-terminal residue or position 16
T2 construct: host or cells: COS-7
Method: (§1) The next day the assay was initiated by washing with HEPES buffered saline (HBS) and followed by an incubation step with assay buffer (HBS added 1 mM isobutyl-1-methylxanthine (IBMX)) for 30 min at 37° C. The ligands were then added and incubated for an additional 30 min at 37° C. After ligand incubation, the HitHunter® CAMP assay (Eurofins DiscoverX, Fremont, […] USA) was carried out according to the manufacturer's instructions. Luminescence was measured by PerkinElmer™ EnVision 2014 Multilabel Reader (PerkinElmer, Waltham, MA). The potencies (EC50 values) were determined by nonlinear regression using GraphPad Prism 9 (San Diego, California, USA). Sigmoid curves were fitted logistically. The efficacies (Emax values) were determined by normalization to the highest concentration applied of the endogenous ligand for each receptor.

rat GIPR = target: T3, rat GIPR (Rattus norvegicus, UniProt P43219); assay: HitHunter cAMP assay in transiently transfected COS-7 cells, rat GIPR; conditions: Emax normalized to highest concentration of endogenous ligand
T3 construct: expressed in transfected cells; host or cells: COS-7
T3 sequence (P43219 19-455): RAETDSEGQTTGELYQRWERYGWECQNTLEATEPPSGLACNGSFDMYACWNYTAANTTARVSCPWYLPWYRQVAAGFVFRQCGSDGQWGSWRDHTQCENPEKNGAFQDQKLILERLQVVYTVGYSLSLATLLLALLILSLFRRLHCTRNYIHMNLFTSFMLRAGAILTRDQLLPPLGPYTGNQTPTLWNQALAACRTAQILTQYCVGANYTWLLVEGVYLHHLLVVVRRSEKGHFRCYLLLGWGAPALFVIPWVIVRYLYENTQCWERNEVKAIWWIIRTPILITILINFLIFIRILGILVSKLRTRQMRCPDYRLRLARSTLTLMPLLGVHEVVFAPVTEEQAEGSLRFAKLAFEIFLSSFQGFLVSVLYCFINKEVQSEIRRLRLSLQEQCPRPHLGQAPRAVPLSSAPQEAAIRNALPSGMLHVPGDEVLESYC
Method: as §1

rat GLP-2R = target: T4, rat GLP-2R (Rattus norvegicus, UniProt Q9Z0W0); assay: HitHunter cAMP assay in transiently transfected COS-7 cells, rat GLP-2R; conditions: Emax normalized to highest concentration of endogenous ligand
T4 construct: expressed in transfected cells; host or cells: COS-7
T4 sequence (Q9Z0W0 1-550): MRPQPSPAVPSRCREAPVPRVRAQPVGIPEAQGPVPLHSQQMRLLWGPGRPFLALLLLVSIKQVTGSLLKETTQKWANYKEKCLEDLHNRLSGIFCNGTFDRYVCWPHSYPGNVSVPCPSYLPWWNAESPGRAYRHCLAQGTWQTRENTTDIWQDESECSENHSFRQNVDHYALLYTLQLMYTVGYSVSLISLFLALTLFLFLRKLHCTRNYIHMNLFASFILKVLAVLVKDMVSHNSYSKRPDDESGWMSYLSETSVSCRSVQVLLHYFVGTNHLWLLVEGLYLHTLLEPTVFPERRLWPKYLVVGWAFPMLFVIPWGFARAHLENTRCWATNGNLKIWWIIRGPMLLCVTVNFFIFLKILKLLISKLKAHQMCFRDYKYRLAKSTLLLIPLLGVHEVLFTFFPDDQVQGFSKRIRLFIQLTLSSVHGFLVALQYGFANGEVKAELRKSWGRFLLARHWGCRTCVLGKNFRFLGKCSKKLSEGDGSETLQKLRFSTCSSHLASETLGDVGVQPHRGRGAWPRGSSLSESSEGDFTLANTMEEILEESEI
Method: as §1

human GIPR [1] = target: T5, human GIPR (Homo sapiens, UniProt P48546); parameters: host or cells: COS-7
T5 sequence (P48546 22-466): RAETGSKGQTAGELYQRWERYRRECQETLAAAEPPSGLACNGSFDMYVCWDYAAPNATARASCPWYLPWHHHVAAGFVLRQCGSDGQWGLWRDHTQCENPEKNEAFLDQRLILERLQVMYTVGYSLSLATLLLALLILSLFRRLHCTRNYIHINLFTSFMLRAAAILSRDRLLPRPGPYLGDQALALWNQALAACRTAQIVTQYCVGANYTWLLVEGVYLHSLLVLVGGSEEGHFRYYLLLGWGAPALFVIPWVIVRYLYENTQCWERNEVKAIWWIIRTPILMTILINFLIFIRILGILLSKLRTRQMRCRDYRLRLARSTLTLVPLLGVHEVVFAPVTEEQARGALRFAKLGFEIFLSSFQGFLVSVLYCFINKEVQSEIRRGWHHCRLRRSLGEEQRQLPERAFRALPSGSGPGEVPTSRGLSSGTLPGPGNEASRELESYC

human SNAP-GIPR = target: T6, human SNAP-GIPR (Homo sapiens, UniProt P48546); parameters: AUC ± SD: unit not given beside the values; conditions: for Emax ± SD (%): NA = no activity
T6 construct: host or cells: HEK293A
T6 sequence (P48546 22-466): T5 sequence (P48546 22-466)

human GIPR [2] = target: T5, human GIPR; parameters: host or cells: HEK293; conditions: beta-arrestin 2 recruitment; for AUC ± SD: AUC of sigmoid curves up to 100 nM; for Emax ± SD (%): normalized to highest concentration of GIP, NA = no activity
Method: HEK293 cells were cultured at 10% CO2 and 37° C. in DMEM-GlutaMAX™-I supplemented with 10% FBS, 180 units/mL penicillin and 45 g/mL streptomycin. These cells were transfected using PEI for the beta-arrestin recruitment assay as described in detail in (van der Velden et al., 2021).
HEK293 cells were transiently transfected with human GIPR, the donor Rluc8-Arrestin-3-Sp1 (beta-arrestin 2 recruitment), the acceptor mem-linker-citrine-SH3, and the GPCR kinase 2 (GRK2). Two days following transfection, the cells were washed with PBS and resuspended in PBS with 5 mM glucose. Then, 85 μL of the cell suspension solution was added to each well of a white 96-well plate followed by the addition of PBS with 5 μM coelenterazine-h. Following 10 min incubation, increasing concentrations of ligands were added and incubated for an additional 30 min. Luminescence was measured with the Berthold Technologies Mithras Multilabel Reader (Rluc8 at 485±40 nm and YFP at 530±25 nm). The potencies (EC50 values) were determined by nonlinear regression using GraphPad Prism 9 (San Diego, California, USA). Sigmoid curves were fitted logistically. The efficacies (Emax values) were determined by normalization to the highest concentration applied of the endogenous ligand (GIP) for the GIPR.

[3] = Emax normalized to highest concentration of endogenous ligand, Table 2
[4] = Emax normalized to highest concentration of endogenous ligand, Table 3
[5] = comparative peptides, Emax normalized to endogenous ligand, Table B
[6] = comparative peptides, Emax normalized to endogenous ligand, Table C
[7] = comparative peptides, Emax normalized to endogenous ligand, Table 4A

T2 sequence (P43220 24-463): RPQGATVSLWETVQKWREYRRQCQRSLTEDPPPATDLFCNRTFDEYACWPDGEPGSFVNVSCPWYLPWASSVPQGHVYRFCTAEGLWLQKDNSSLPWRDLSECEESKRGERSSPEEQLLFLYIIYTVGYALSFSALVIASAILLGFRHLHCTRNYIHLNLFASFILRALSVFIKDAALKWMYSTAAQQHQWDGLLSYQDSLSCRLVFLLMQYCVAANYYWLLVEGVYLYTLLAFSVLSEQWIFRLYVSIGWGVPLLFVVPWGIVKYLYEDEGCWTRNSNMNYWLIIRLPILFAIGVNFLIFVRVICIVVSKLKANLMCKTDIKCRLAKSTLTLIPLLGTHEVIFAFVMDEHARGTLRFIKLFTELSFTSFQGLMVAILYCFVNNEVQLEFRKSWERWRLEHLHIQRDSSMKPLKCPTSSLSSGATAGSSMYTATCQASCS

Substance	Efficacy GLP-2R (human GLP-2R; [3])	Efficacy GLP-1R (human GLP-1R; [4])	rGIPR Efficacy (%) (rat GIPR)	rGLP-2R Efficacy (%) (rat GLP-2R)	Efficacy GIPR (human GIPR [1]; [3])	AUC ± SD (human SNAP-GIPR; GIPR internalization, AUC of sigmoid curves up to 1 μM)	Emax ± SD (%) (human SNAP-GIPR; GIPR internalization)	AUC ± SD (human SNAP-GIPR)	AUC ± SD (human GIPR [2])	Emax ± SD (%) (human GIPR [2])	Efficacy GLP-2R (human GLP-2R; [5])	Efficacy GLP-1R (human GLP-1R; [6])	activation of hGLP-1R (human GLP-1R)	Efficacy GIPR (human GIPR [1]; [7])
(C10)H-Aib-DGTFISDYST-Aib-LDNLAARDFINWLIQTKITK-OH [Compound no. 44]	100	19	87.3	90.0	110	–	–	–	–	–	–	–	–	–
(C16)HADGTFISDYSTAibLDNLAARDFINWLIQTKITKNDWKHNITQ [Compound no. 53]	79	–	77.3	18.0	90	–	–	–	–	–	–	–	–	–
Ac-H-Aib-DGTFISDYS-K(γGlu-C16)-Aib-LDNLAARDFINWLIQTKITK-OH [Compound no. 36]	76	19	–	–	92	47 ± 1	58 ± 8	–	–	–	–	–	–	–
H-Aib-DG-K(γGlu-C10)-FISDYST-Aib-LDNLAARDFINWLIQTKITK-OH [Compound no. 24]	90	–	96.3	76.3	113	–	68 ± 3	113 ± 4	117 ± 31	57 ± 16	–	–	–	–
H-Aib-DG-K(γGlu-C16 diacid)-FISDYST-Aib-LDNLAARDFINWLIQTKITK-OH [Compound no. 25]	88	–	71.7	65.0	93	–	46 ± 2	57 ± 2	42 ± 15	23 ± 7	–	–	–	–
H-Aib-DG-K(γGlu-C16)-FISDYSTILDNLAARDFINWLIQTKITK-OH [Compound no. 9]	91	32	74.3	82.0	110	–	–	–	–	–	–	–	–	–
H-Aib-DGTFISDY-K(γGlu-C16)-T-Aib-LDNLAARDFINWLIQTKITK-OH [Compound no. 29]	124	0	–	–	104	–	–	–	–	–	–	–	–	–
H-Aib-DGTFISDY-K(γGlu-C16)-TAib-LDNLAARDFINWLIQTKITKNDWKHNITQ-OH [Compound no. 37]	97	–	91.0	83.3	–	–	24 ± 5	15 ± 4	0	15 ± 41	–	–	–	–
H-Aib-DGTFISDY-K(γGlu-C16)-TILDNLAARDFINWLIQTKGKKNDWKHNITQ-NH2 [Compound no. 14]	114	0	98.3	93.3	101	–	–	–	–	–	–	–	–	–
H-Aib-DGTFISDYS-K(γGlu-C16)-Aib-LDNLAARDFINWLIQTKITK-OH [Compound no. 35]	88	31	86.3	87.3	106	–	–	–	58 ± 14	34 ± 7	–	–	–	–
H-Aib-DGTFISDYS-K(γGlu-C16)-ILDNLAARDFINWLIQTKITK-OH [Compound no. 12]	79	62	–	–	107	–	–	–	–	–	–	–	–	–
H-Aib-DGTFISDYST-Aib-LDNLAARDFINWLIQTKITK(C10)-NH2 [Compound no. 65, reference compound]	–	–	–	–	–	–	–	–	–	–	77	76	capable of activating hGLP-1R	107
H-Aib-DGTFISDYSTIL-K(γGlu-C16)-NLAARDFINWLIQTKITK-OH [Compound no. 13]	95	4	69.7	83.7	95	–	–	–	–	–	–	–	–	–
H-Aib-DGTFISDYSTILDNLAARDFINWLIQTKITK(C10)-OH [Compound no. 63, reference compound]	–	–	–	–	–	–	–	–	–	–	105	84	capable of activating hGLP-1R	99
H-Aib-EG-K(γGlu-C16)-FISDYST-Aib-LDNLAARDFINWLIQTKITK-OH [Compound no. 27]	108	0	–	–	98	–	–	–	–	–	–	–	–	–

Source: patent US20250304643A1, “PEPTIDE DUAL AGONISTS OF GIPR AND GLP2R” (BAINAN BIOTECH APS, priority 2021, published 2025)
